Here are results for 7 molecules from patent US9302999B2, “Substituted triazoles as herbicides” (E. I. DU PONT DE NEMOURS AND COMPANY, priority 2012, dated 2016).

For test [1], the system named is buckwheat, wild (wild buckwheat, Polygonum convolvulus). Kind of test: Test D pre-/postemergence: buckwheat, wild. The format is in vivo. The source says: (§1) Seeds of plant species selected from bluegrass (annual bluegrass, Poa annua), blackgrass (Alopecurus myosuroides), canarygrass (Phalaris minor), chickweed (common chickweed, Stellaria media), galium (catchweed bedstraw, Galium aparine), bromegrass, downy (downy bromegrass, Bromus tectorum), field poppy (Papaver rhoeas), field violet (Viola arvensis), foxtail, green (green foxtail, Setaria viridis), deadnettle (henbit deadnettle, Lamium amplexicaule), ryegrass, Italian (Italian ryegrass, Lolium multiflorum), kochia (Kochia scoparia), lambsquarters (Chenopodium album), oilseed rape (Brassica napus), pigweed (Amaranthus retroflexus), Russian thistle (Salsola iberica), chamomile (scentless chamomile, Matricaria inodora), speedwell (bird's-eye speedwell, Veronica persica), barley, spring (spring barley, Hordeum vulgare), wheat, spring (spring wheat, Triticum aestivum), buckwheat, wild (wild buckwheat, Polygonum convolvulus), mustard, wild (wild mustard, Sinapis arvensis), oat, wild (wild oat, Avena fatua), radish, wild (wild radish, Raphanus raphanistrum), windgrass (Apera spica-venti), barley, winter (winter barley, Hordeum vulgare), and wheat, winter (winter wheat, Triticum aestivum) were planted into a silt loam soil and treated preemergence with test chemicals formulated in a non-phytotoxic solvent mixture which included a surfactant. At the same time, these same crop and weed species were planted in pots containing the planting medium comprising spaghnum peat moss, vermiculite, wetting agent and starter nutrients and treated with postemergence applications of the test chemicals formulated in the same manner. Plants ranged in height from 2 to 18 cm (1- to 4-leaf stage).
(§2) Treated plants and controls were maintained in a controlled growth environment for 14 to 21 days after which time all species were compared to controls and visually evaluated. Plant response ratings, summarized in Table D, are based on a scale of 0 to 100 where 0 is no effect and 100 is complete control. A dash (-) response means no test result.

The test system of test [2] is mustard, wild (wild mustard, Sinapis arvensis). Nature of the test: Test D pre-/postemergence: mustard, wild. The format is in vivo.
Text: as §1, §2

Where [3] appears, read: Postemergence, 31 g ai/ha, scale 0 to 100 (0 no effect, 100 complete control).
[4] abbreviates: Postemergence, 62 g ai/ha, scale 0 to 100 (0 no effect, 100 complete control).
Where [5] appears, read: Postemergence, 125 g ai/ha, scale 0 to 100, 0 no effect, 100 complete control.
Where [6] appears, read: Postemergence, 250 g ai/ha, scale 0 to 100 (0 no effect, 100 complete control).
The mark [7] stands for this setting: Preemergence, 31 g ai/ha, scale 0 to 100, 0 no effect, 100 complete control.
Where [8] appears, read: Preemergence, 62 g ai/ha, scale 0 to 100.
Where [9] appears, read: Preemergence, 125 g ai/ha, scale 0 to 100.
Setting [10] is: Preemergence, 250 g ai/ha, scale 0 to 100.
[11] abbreviates: Postemergence, 16 g ai/ha, scale 0 to 100.
[12] abbreviates: Preemergence, 16 g ai/ha, scale 0 to 100, 0 no effect, 100 complete control.

Turning to `FC(F)(F)COc1nn(-c2ccc(C(F)(F)F)cc2)nc1Cc1ccnc(C(F)(F)F)c1` [Compound 14, 4-[[5-(2,2,2-trifluoroethoxy)-2-[4-(trifluoromethyl)phenyl]-2H-1,2,3-triazol-4-yl]methyl]-2-(trifluoromethyl)pyridine], the “Plant response rating: Buckwheat, Wild” value in test [1] (setting [3]) was found to be 0; in test [1] (setting [4]), 40; in test [1] (setting [5]), 60; in test [1] (setting [6]) it was 100. The “Plant response rating, Buckwheat, Wild” value in test [1] (setting [7]) was determined as 0; in test [1] (setting [8]), 30; in test [1] (setting [9]) it was 35; in test [1] (setting [10]) it was 40. Further, the “Plant response rating: Mustard, Wild” value in test [2] (setting [3]) was found to be 50; in test [2] (setting [4]), 90; in test [2] (setting [5]) it was 100; in test [2] (setting [6]) it was 100. Besides, the “Plant response rating, Mustard, Wild” value was determined as 0 in test [2] (setting [7]), 50 in test [2] (setting [8]), 90 in test [2] (setting [9]) and 95 in test [2] (setting [10]).

Consider `COc1nn(-c2ccc(C(F)(F)F)cc2)nc1Cc1ccnc(C(F)(F)F)c1` [Compound 15, 4-[[5-methoxy-2-[4-(trifluoromethyl)phenyl]-2H-1,2,3-triazol-4-yl]methyl]-2-(trifluoromethyl)pyridine], for which the “Plant response rating: Buckwheat, Wild” value in test [1] (setting [3]) amounted to 30; in test [1] (setting [4]), 30; in test [1] (setting [5]), 70; in test [1] (setting [6]), 100. The “Plant response rating, Buckwheat, Wild” value in test [1] (setting [11]) stood at 0; in test [1] (setting [7]), 0; in test [1] (setting [8]) it was 100; in test [1] (setting [9]), 100; in test [1] (setting [10]), 100. Besides, the “Plant response rating: Mustard, Wild” value came to 70 in test [2] (setting [3]), 100 in test [2] (setting [4]), 100 in test [2] (setting [5]) and 100 in test [2] (setting [6]). Besides, the “Plant response rating, Mustard, Wild” value in test [2] (setting [11]) worked out at 0; in test [2] (setting [7]), 100; in test [2] (setting [8]), 100; in test [2] (setting [9]), 100; in test [2] (setting [10]), 100.

For `Cc1nn(-c2ccc(C(F)(F)F)cn2)nc1Oc1ccnc(C(F)(F)F)c1` [Compound 23], the “Plant response rating: Buckwheat, Wild” value in test [1] (setting [3]) is listed as 25; in test [1] (setting [4]), 35; in test [1] (setting [5]), 40; in test [1] (setting [6]), 75. For the same molecule, the “Plant response rating, Buckwheat, Wild” value in test [1] (setting [11]) came to 20. For the same molecule, the “Plant response rating: Mustard, Wild” value was determined as 40 in test [2] (setting [3]), 85 in test [2] (setting [4]), 100 in test [2] (setting [5]) and 100 in test [2] (setting [6]). For the same molecule, in test [2] (setting [11]), the “Plant response rating, Mustard, Wild” value is listed as 20.

Regarding `Cc1nn(-c2ccc(C(F)(F)F)cn2)nc1Cc1cccc(C(F)(F)F)c1` [Compound 106], the “Plant response rating: Buckwheat, Wild” value is on record as 0 in test [1] (setting [3]), 10 in test [1] (setting [4]), 10 in test [1] (setting [5]) and 100 in test [1] (setting [6]). Besides, the “Plant response rating, Buckwheat, Wild” value in test [1] (setting [11]) is given as 0; in test [1] (setting [7]), 50; in test [1] (setting [8]), 100; in test [1] (setting [9]), 100; in test [1] (setting [10]) it was 100. The “Plant response rating: Mustard, Wild” value in test [2] (setting [3]) amounted to 80; in test [2] (setting [4]), 80; in test [2] (setting [5]), 90; in test [2] (setting [6]), 100. In addition, the “Plant response rating, Mustard, Wild” value was found to be 20 in test [2] (setting [11]); 20 in test [2] (setting [7]); 50 in test [2] (setting [8]); 50 in test [2] (setting [9]); 60 in test [2] (setting [10]).

Turning to `Cc1nn(-c2ccc(C(F)(F)F)cc2)nc1Oc1ccnc(C(F)(F)F)c1` [Compound 120], the “Plant response rating: Buckwheat, Wild” value was determined as 75 in test [1] (setting [3]), 85 in test [1] (setting [4]), 95 in test [1] (setting [5]) and 98 in test [1] (setting [6]). Moreover, the “Plant response rating, Buckwheat, Wild” value in test [1] (setting [11]) is given as 50; in test [1] (setting [8]) it was 10; in test [1] (setting [9]), 70; in test [1] (setting [10]) it was 100. The “Plant response rating, Mustard, Wild” value came to 0 in test [2] (setting [12]), 90 in test [2] (setting [8]), 100 in test [2] (setting [9]) and 100 in test [2] (setting [10]).

Turning to `COc1nn(-c2ccc(C(F)(F)F)cc2)nc1Cc1ccnc(C(F)F)c1` [Compound 138], the “Plant response rating: Buckwheat, Wild” value in test [1] (setting [3]) is recorded as 40; in test [1] (setting [4]) it was 50; in test [1] (setting [5]), 80; in test [1] (setting [6]) it was 80. Moreover, the “Plant response rating, Buckwheat, Wild” value in test [1] (setting [11]) was determined as 40. Moreover, the “Plant response rating: Mustard, Wild” value in test [2] (setting [3]) is 90; in test [2] (setting [4]), 95; in test [2] (setting [5]), 100; in test [2] (setting [6]) it was 100. Further, the “Plant response rating, Mustard, Wild” value in test [2] (setting [11]) turned out to be 75.

Turning to `Cc1nn(-c2ccc(F)c(C(F)(F)F)c2)nc1Cc1ccnc(C(F)(F)F)c1` [Compound 156], the “Plant response rating: Buckwheat, Wild” value came to 75 in test [1] (setting [3]), 80 in test [1] (setting [4]) and 85 in test [1] (setting [5]). For the same molecule, the “Plant response rating, Buckwheat, Wild” value in test [1] (setting [11]) is listed as 70; in test [1] (setting [12]), 0; in test [1] (setting [7]), 50; in test [1] (setting [8]), 65; in test [1] (setting [9]), 100. For the same molecule, the “Plant response rating: Mustard, Wild” value came out at 95 in test [2] (setting [3]), 100 in test [2] (setting [4]) and 100 in test [2] (setting [5]). The “Plant response rating, Mustard, Wild” value in test [2] (setting [11]) was found to be 100; in test [2] (setting [12]), 10; in test [2] (setting [7]), 85; in test [2] (setting [8]), 95; in test [2] (setting [9]), 100.
